Assays:
[1] = system: granzyme B-expressing CD8+T cells; assay: Granzyme B staining (FACS) of PBMCs; format: cell-based, human; details: DMC 2.5 μM + BiTE; PBMCs of four healthy people; p=0.01
Experimental: The medium collected in section 1(4) above was centrifuged at 400 g for 5 minutes, and the supernatant was removed to leave the PBMC pellet. Each antibody (CD3, CD4, CD8, and CD45RA) was diluted 100-fold with 2% FBS- and 10 mM HEPES-supplemented HBSS medium (“HBSS+2% FBS+10 mM HEPES” medium). Such antibody diluents were individually added at 30 μL/tube to the pellet in which the supernatant was removed, followed by incubation at 4° C. for 30 minutes. After an HBSS+2% FBS+10 mM HEPES medium was added at 200 μL/tube, and centrifugation was performed at 400 g for 5 minutes, the supernatant was removed to leave the pellet. After the remaining PBMCs were suspended by adding a fix buffer at 100 μL/tube, incubation was performed for 30 minutes at 4° C.
The tube obtained after the completion of incubation was centrifuged at 400 g for 5 minutes to remove the supernatant and leave the PBMC pellet. After a wash buffer was added at 200 μL/tube to suspend the pellet, centrifugation was performed at 400 g for 5 minutes to remove the supernatant and leave the PBMC pellet. An anti-Granzyme B antibody was diluted 100-fold in a wash buffer, and the remaining PBMCs were suspended in the antibody diluent (30 μL/tube), followed by incubation for 30 minutes at 4° C. […]

CD8+T cells = assay: CytoTell assay, proliferative capacity of CD8+T cells; format: cell-based, human; details: DMC 2.5 μM + BiTE; PBMCs of five healthy people; 96 hours; p=0.007
Experimental: PBMCs were collected from peripheral blood of healthy people according to the method described in section 1(1) above. A solution in which CytoTell red was mixed with the HBSS+2% FBS+10 mM HEPES medium was added to the collected PBMC pellet, followed by incubation at 37° C. for 30 minutes. After the completion of incubation, the supernatant was removed by centrifugation at 400 g for 5 minutes to leave the PBMC pellet. By adding a 10% FBS-supplemented RPMI medium, the remaining PBMCs were suspended to prepare a suspension of PBMCs having a cell count of 1×10^6/mL.
As in section 1(3) above, a U251 cell line, PBMCs, and BiTE, or a U251 cell line, PBMC, BiTE, and a test drug, were contacted and cultured at 37° C. for 96 hours.
After the completion of culture, the culture supernatant was collected, followed by washing in a 10% FBS-supplemented RPMI 1640 medium three times, and the media were also collected.
The collected medium was centrifuged at 400 g for 5 min, and the supernatant was removed to leave the PBMC pellet. Each antibody (CD3, CD4, CD8, and CD45RA) was diluted 100-fold with a HBSS+2% FBS+10 mM HEPES medium. The antibody diluents were individually added at 30 μL/tube to the pellet to suspend the remaining PBMCs, followed by incubation at 4° C. for 30 minutes. […]

[2] = system: CMV-specific cytotoxic T cells; assay: CMV-specific CTL induction (mixed CMV peptide/lymphocytes culture); format: cell-based, human; details: DMC 2.5 μM; 14 days after CMV peptide stimulation; PBMCs of one healthy person; p<0.05
Experimental: CMV peptides adjusted to 10 μg/mL in a 10% FBS-supplemented RPMI medium was added to PBMCs of healthy people with an HLA type of 24:02, followed by culture in a 96-well plate for 3 days. […] The medium containing PBMCs in each well was transferred into a 24-well plate for scale-up, followed by culture for another 3 days in a 10% FBS-supplemented RPMI medium containing 10 μg/mL peptide+20 U/mL IL-2±2.5 μM DMC. The medium was replaced with a 10% FBS-supplemented RPMI medium containing 10 μg/mL peptide+20 U/mL IL-2±2.5 μM DMC, followed by culture for another 4 days (culture for 14 days).
After the completion of culture, centrifugation was performed at 400 g for 5 minutes to remove the supernatant and leave the PBMC pellet; and each antibody (CD3, CD4, and CD8) was diluted 100-fold, and CMV Tetramer was diluted 10-fold in a HBSS+2% FBS+10 mM HEPES medium, and added at 30 μL/tube to a PBMC pellet to suspend the PBMCs, followed by incubation at 4° C. for 30 minutes. By adding the HBSS+2% FBS+10 mM HEPES medium at 200 μL/tube, centrifugation was performed at 400 g for 5 minutes. The supernatant was removed to leave the PBMC pellet.
The PBMCs left in the HBSS+2% FBS+10 mM HEPES medium were suspended, and the suspension was subjected to FACS analysis. […]

U251 cell line [3] = assay: Tumor-cytotoxic activity of T cells in lung cancer tissue; format: cell-based, human; details: BiTE + test drug (DMC); n=5 patients
Experimental: Regarding the tumor-cytotoxic activity of T cells in lung cancer tissue, cells were collected from lung cancer tissue according to the following method. The tumor-cytotoxic activity was measured as the activity of the cell population.
The cancer tissue was transferred to a 6-cm dish and minced. The cancer tissue was then placed in a tissue stirring solution (tumor dissociation Kit (Miltenyi Biotec) was added to HBSS+2% FBS+10 mM HEPES), followed by stirring with a gentle MACS™ Dissociator (Miltenyi Biotec). Incubation was then performed by rotating the mixture in an incubator maintained at 37° C. for 30 minutes. […] The tumor-cytotoxic activity of the collected cells was measured in accordance with the same method as in section I.1(1) to (5) above. […]
(§1) According to the method described in section I.5 above, T cells in tumor tissue of a lung cancer patient were collected; and by using such cells, tumor-cytotoxic activity was measured to examine the effect of the tetracycline-based compound. Specifically, T cells in tumor tissue of a lung cancer patient were collected according to the method described in section I.5 above; and the presence ratio of IFNγ-producing CD8^+T cells was measured according to the method described in section I.6 above, thus examining the effect of the tetracycline-based compound.

[4] = system: IFNγ-producing CD8+T cells; assay: IFNγ production assay on cells from lung cancer tissue; format: cell-based, human; details: BiTE + test drug (DMC), n=3 patients
Experimental: The IFNγ production capacity of cells in all media that were collected in section 5 in accordance with the method described in section 1(4) above was measured using an IFNγ secretion assay kit (Miltenyi Biotec).
The medium collected in section 1(4) above was centrifuged at 400 g for 5 minutes to remove the supernatant. An IFNγ catch reagent diluted 100-fold in a 10% human serum-supplemented AIM medium was added at 100 μL/tube to the remaining PBMC pellet to suspend the PBMCs, followed by incubation at 4° C. for 10 minutes.
A 10% human serum-supplemented AIM medium heated to 37° C. was dispensed at 1 mL/tube into the tube subjected to the incubation. While stirring the tube, incubation was performed at 37° C. for 45 minutes. […]
as §1

CT26WT cells = assay: Dependence on CD8+T cells of the enhancement of the anti-PD-L1 antibody in vivo (Example 9); design: species or system BALB/c mice
Experimental: In the same manner as in Example 8, CT26WT cells were cultured, and subcutaneously inoculated to 6-week-old BALB/c mice (Day 0).
Before the administration of DMC or water and an anti-PD-L1 antibody, the anti-CD8 antibody (InVivo MAb anti-mouse CD8α, produced by BioXCell) was intraperitoneally administered at 400 μg/200 μL/mouse to the CD8 depletion group on Day 6. Control IgG was administered at 400 μg/200 μL/mouse to the other groups.
Next, administration of DMC was started on Day 7. The DMC was dissolved in saline, and then orally administered at 200 μL/mouse using an oral sonde. In the groups free of DMC, distilled water was orally administered at 200 μL/mouse. The DMC was administered once daily from Day 7 to Day 12.
Subsequently, on Day 10, an anti-PD-L1 antibody or control IgG was intraperitoneally administered at 200 μg/200 μL/mouse.
On Day 10 and Day 13, the tumor size was measured. The tumor volume was calculated in the same manner as in Example 8.

U251 cell line [5] = assay: Tumor-cytotoxic activity using peripheral blood mononuclear cells with EphA2-CD3 BiTE; details: test drug 2.5 μM + BiTE 100 ng/mL; PBMCs of healthy people + U251; 48 hours; n=3; DMC, MC, CTC p<0.01; TC, MINO p<0.05
Experimental: Thereafter, by measuring the degree of cytotoxicity to the tumor cells (tumor-cytotoxic activity) by the PBMCs, the anti-tumor activity of T cells in the PBMCs was evaluated.
(1) A U251 cell line was suspended in a RPMI1640 medium containing 10% FBS (a 10% FBS-supplemented RPMI1640 medium), and then detached with trypsin. The cell line was suspended in a 10% FBS-supplemented RPMI1640 medium such that the cell count was 1×10^5/mL, thereby preparing a cell suspension. The cell suspension was seeded in a 96-well plate at a rate of 100 μL/well, and incubated in a wet incubator at 37° C. for 18 hours in the presence of 5% CO2 gas. […]
(3) EphA 2-CD3 BiTE (registered trademark) containing an antigen-binding domain for EphA2 and an antigen-binding domain for CD3 in the molecule was prepared at 400 ng/mL in a 10% FBS-supplemented RPMI 1640 medium (“BiTE solution”). […] The amount of the 10% FBS-supplemented RPMI medium per well was determined so that the total final amount was 200 μL. […]
(5) The absorbance at 492 nm of each well of the 96-well microplate after the completion of incubation in step (4) was measured with a microplate reader. Subsequently, tumor-cytotoxic activity was calculated in accordance with the following equation.
Absorbance of a well consisting of U251 cell line and PBMCs=A […]

SMILES | presence ratio of granzyme B-expressing CD8+T cells as compared to BiTE alone [1] | proliferative capacity of CD8+T cells as compared to BiTE alone (CD8+T cells) | presence ratio of CMV-specific cytotoxic T cells (CMV Tetramer+CD8+T cells), DMC+ as compared to DMC− [2] | anti-tumor activity of T cells in lung cancer tissue compared to BiTE alone (U251 cell line [3]) | presence ratio of IFNγ-producing CD8+T cells compared to BiTE alone [4] | tumor volume on Day 13 (CT26WT cells; Example 9, DMC 30 mg/kg oral Day 7 to Day 12, anti-PD-L1 antibody or control IgG 200 μg/mouse ip Day 10, no CD8 depletion) | increase in tumor volume as compared to the aPD-L1+H2O group (CT26WT cells; IgG+DMC group, DMC 30 mg/kg oral) | T-cell anti-tumor activity (tumor-cytotoxic activity) as compared to BiTE alone (U251 cell line [5])
CN(C)[C@@H]1C(O)=C(C(N)=O)C(=O)[C@@]2(O)C(O)=C3C(=O)c4c(O)ccc(Cl)c4[C@@H](O)[C@H]3C[C@@H]12 [DMC, demethyl chlortetracycline] | high | high | significantly high | enhanced | increased | about 100 mm^3 | more inhibited | 
CN(C)[C@@H]1C(=O)C(C(N)=O)=C(O)[C@@]2(O)C(=O)C3=C(O)c4c(O)cccc4[C@@](C)(O)[C@H]3C[C@@H]12 [TC, tetracycline] |  |  |  |  |  |  |  | enhanced
